Test system: arthritis induced by injection of type II collagen in the mouse
Assay: Model of arthritis induced by type II collagen in mice (CIA), hind paw plethysmometry
Format: in vivo
Conditions: for Total hind paw volume (sum of both hind paws) / Oedema (difference in paw volume from basal values on day 21) in both hind paws: group mean n=10, listed as Group E; for percentage inhibition of oedema versus the control group: 10 mg/kg BID
Experimental: The aim of the study was to determine the anti-inflammatory activity of the test item in a model of arthritis induced by injection of type II collagen in the mouse (CIA) and to compare the activity of two different formulations: micronized and non-micronized.
Induction of arthritis was carried out by an initial exposure to type II bovine collagen by a subcutaneous injection at the base of the tail (induction phase).
After a recovery time of 21 days, animals received a booster injection and approximately 4-5 weeks after the first injection there was an immune response with arthritis appearing in the extremities in the majority of the cases.
Four experimental groups were used in the study with 10 animals in each group:
Group D: Positive control: FCA+vehicle B.I.D.
Group E: Micronized Test Item (Micro) 10 mg/kg B.I.D.
Group F: Non-Micronized test item 10 mg/kg B.I.D.
Group G: Reference item: Indomethacin 1 mg/kg Q.D.
The dose administered to groups E and F was 10 mg/kg.
The dose administered to group G was 1 mg/kg.
The doses of the test and reference items were expressed as mg/Kg of compound administered to each animal.
The test and reference items were administered in a solution of methylcellulose (0.25%: vehicle).
The positive control group received the vehicle (methylcellulose 0.25%).
The test and reference items, as well as the vehicle were administered orally at a dosing volume of 5 mls/kg.
The route of administration used was oral by use of an intragastric cannula.
On the day of start of the study each mouse was injected subcutaneously at the base of the tail with a first dose of 0.1 ml of an emulsion of bovine type II collagen (1 mg/mL) in Freund's Complete Adjuvant. Afterwards, on day 21 after this first injection, a second booster injection of type II collagen was administered to all animals. In this occasion the collagen suspension was done using Incomplete Freund's Adjuvant.
Coinciding with the second booster injection on day 21 treatment with the test or reference items was started to the corresponding animals.
Treatment with the test or reference items was carried out for 31 consecutive days (days 21-51 of the experimental period). Additionally, a recovery period was included at the end of the treatment period from day 52 to day 65 in order to evaluate the duration of any anti-inflammatory effect observed once dosing has been terminated.
The animals' hind paw volume was measured by plethysmometry one day before the 1st injection of collagen, again one day before the second (booster) collagen injection (basal values) and then daily after administration of test/reference item until the end of the study. During the recovery period at the end of the study, hind paw volume was measured three times per week.
Additionally the data was also represented graphically, depicting changes in total hind paw volume, as well as oedema (differences from basal (day 21) values).

[1] = day 22, oral treatment days 21-51
[2] = day 23, oral treatment days 21-51
[3] = day 26, oral treatment days 21-51
[4] = day 27, oral treatment days 21-51
[5] = day 29, oral treatment days 21-51
[6] = day 30, oral treatment days 21-51
[7] = day 33, oral treatment days 21-51
[8] = day 34, oral treatment days 21-51
[9] = day 35, oral treatment days 21-51
[10] = day 36, oral treatment days 21-51
[11] = day 37, oral treatment days 21-51
[12] = day 40, oral treatment days 21-51
[13] = day 41, oral treatment days 21-51
[14] = day 42, oral treatment days 21-51
[15] = day 43, oral treatment days 21-51
[16] = day 44, oral treatment days 21-51
[17] = day 47, oral treatment days 21-51
[18] = day 48, oral treatment days 21-51
[19] = day 49, oral treatment days 21-51
[20] = day 50, oral treatment days 21-51
[21] = day 51, oral treatment days 21-51
[22] = day 54, recovery period after treatment days 21-51
[23] = day 56, recovery period after treatment days 21-51
[24] = day 58, recovery period after treatment days 21-51
[25] = day 61, recovery period after treatment days 21-51
[26] = day 63, recovery period after treatment days 21-51
[27] = day 65, recovery period after treatment days 21-51

Oc1c(I)cc(I)cc1I [Micronized, 2,4,6-triiodophenol]
Total hind paw volume (sum of both hind paws) (day 0, before collagen and treatment): 0.169 | Total hind paw volume (sum of both hind paws) (day 20, basal, before treatment): 0.238 | Oedema (difference in paw volume from basal values on day 21) in both hind paws [1]: 0.006 | Total hind paw volume (sum of both hind paws) [1]: 0.244 | Oedema (difference in paw volume from basal values on day 21) in both hind paws [2]: −0.010 | Total hind paw volume (sum of both hind paws) [2]: 0.228 | Oedema (difference in paw volume from basal values on day 21) in both hind paws [3]: 0.014 | Total hind paw volume (sum of both hind paws) [3]: 0.252 | Oedema (difference in paw volume from basal values on day 21) in both hind paws [4]: −0.007 | Total hind paw volume (sum of both hind paws) [4]: 0.231 | Oedema (difference in paw volume from basal values on day 21) in both hind paws [5]: −0.003 | Total hind paw volume (sum of both hind paws) [5]: 0.234 | Oedema (difference in paw volume from basal values on day 21) in both hind paws [6]: −0.001 | Total hind paw volume (sum of both hind paws) [6]: 0.237 | Oedema (difference in paw volume from basal values on day 21) in both hind paws [7]: −0.007 | Total hind paw volume (sum of both hind paws) [7]: 0.231 | Oedema (difference in paw volume from basal values on day 21) in both hind paws [8]: −0.010 | Total hind paw volume (sum of both hind paws) [8]: 0.228 | Oedema (difference in paw volume from basal values on day 21) in both hind paws [9]: 0.012 | Total hind paw volume (sum of both hind paws) [9]: 0.250 | Oedema (difference in paw volume from basal values on day 21) in both hind paws [10]: 0.006 | Total hind paw volume (sum of both hind paws) [10]: 0.244 | Oedema (difference in paw volume from basal values on day 21) in both hind paws [11]: 0.001 | Total hind paw volume (sum of both hind paws) [11]: 0.239 | Oedema (difference in paw volume from basal values on day 21) in both hind paws [12]: 0.026 | Total hind paw volume (sum of both hind paws) [12]: 0.263 | Oedema (difference in paw volume from basal values on day 21) in both hind paws [13]: 0.018 | Total hind paw volume (sum of both hind paws) [13]: 0.256 | Oedema (difference in paw volume from basal values on day 21) in both hind paws [14]: 0.003 | Total hind paw volume (sum of both hind paws) [14]: 0.241 | Oedema (difference in paw volume from basal values on day 21) in both hind paws [15]: 0.006 | Total hind paw volume (sum of both hind paws) [15]: 0.244 | Oedema (difference in paw volume from basal values on day 21) in both hind paws [16]: 0.001 | Total hind paw volume (sum of both hind paws) [16]: 0.238 | Oedema (difference in paw volume from basal values on day 21) in both hind paws [17]: 0.016 | Total hind paw volume (sum of both hind paws) [17]: 0.254 | percentage inhibition of oedema versus the control group (day 48, P<0.05): 68.72±8.98% | Oedema (difference in paw volume from basal values on day 21) in both hind paws [18]: 0.016 | Total hind paw volume (sum of both hind paws) [18]: 0.254 | Oedema (difference in paw volume from basal values on day 21) in both hind paws [19]: 0.023 | Total hind paw volume (sum of both hind paws) [19]: 0.261 | percentage inhibition of oedema versus the control group (day 50, P<0.05): 70.56±9.88% | Oedema (difference in paw volume from basal values on day 21) in both hind paws [20]: 0.017 | Total hind paw volume (sum of both hind paws) [20]: 0.255 | percentage inhibition of oedema versus the control group (day 51, highly significant): 77.59±9.08% | Oedema (difference in paw volume from basal values on day 21) in both hind paws [21]: 0.013 | Total hind paw volume (sum of both hind paws) [21]: 0.251 | Oedema (difference in paw volume from basal values on day 21) in both hind paws [22]: 0.032 | Total hind paw volume (sum of both hind paws) [22]: 0.270 | Oedema (difference in paw volume from basal values on day 21) in both hind paws [23]: 0.022 | Total hind paw volume (sum of both hind paws) [23]: 0.259 | percentage inhibition of oedema versus the control group (day 56, P<0.05): 71.49±7.19% | Oedema (difference in paw volume from basal values on day 21) in both hind paws [24]: 0.030 | Total hind paw volume (sum of both hind paws) [24]: 0.268 | percentage inhibition of oedema versus the control group (day 58, P<0.05): 66.29±5.13% | Oedema (difference in paw volume from basal values on day 21) in both hind paws [25]: 0.030 | Total hind paw volume (sum of both hind paws) [25]: 0.27 | Oedema (difference in paw volume from basal values on day 21) in both hind paws [26]: 0.026 | Total hind paw volume (sum of both hind paws) [26]: 0.26 | Oedema (difference in paw volume from basal values on day 21) in both hind paws [27]: 0.029 | Total hind paw volume (sum of both hind paws) [27]: 0.27 | percentage inhibition of oedema versus the control group (day 65, P<0.05): 64.95±7.58%

Source: US7935853B2, “Micronized composition of a 2,4-disubstituted phenol derivative” (priority 2008, dated 2011)
